From PubChem BioAssay AID434951 (Broad Institute, 2010)
Calls of active or inactive are those of the source.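 Rule for the calls: active = a fitted half-maximal concentration EC50 for the rise in nuclear signal no higher than ten times the top dose tested; inconclusive = flat fit with activity between 30% and 70%, or unusable fit; inactive = EC50 beyond ten times the top dose.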

The molecules below were run against Hypoxia-inducible factor 1-alpha (Homo sapiens) (UniProt Q16665) (assay: HIF pathway activation, GFP-HIF1alpha translocation – imaging, fluorescence, U2OS GFP-HIF1alpha, confirmation (AID 434951)). Conditions: U2OS GFP-HIF1alpha nuclear intensity, high-content imaging.
Chain of Hypoxia-inducible factor 1-alpha (Homo sapiens) (Q16665 whole entry, looked up): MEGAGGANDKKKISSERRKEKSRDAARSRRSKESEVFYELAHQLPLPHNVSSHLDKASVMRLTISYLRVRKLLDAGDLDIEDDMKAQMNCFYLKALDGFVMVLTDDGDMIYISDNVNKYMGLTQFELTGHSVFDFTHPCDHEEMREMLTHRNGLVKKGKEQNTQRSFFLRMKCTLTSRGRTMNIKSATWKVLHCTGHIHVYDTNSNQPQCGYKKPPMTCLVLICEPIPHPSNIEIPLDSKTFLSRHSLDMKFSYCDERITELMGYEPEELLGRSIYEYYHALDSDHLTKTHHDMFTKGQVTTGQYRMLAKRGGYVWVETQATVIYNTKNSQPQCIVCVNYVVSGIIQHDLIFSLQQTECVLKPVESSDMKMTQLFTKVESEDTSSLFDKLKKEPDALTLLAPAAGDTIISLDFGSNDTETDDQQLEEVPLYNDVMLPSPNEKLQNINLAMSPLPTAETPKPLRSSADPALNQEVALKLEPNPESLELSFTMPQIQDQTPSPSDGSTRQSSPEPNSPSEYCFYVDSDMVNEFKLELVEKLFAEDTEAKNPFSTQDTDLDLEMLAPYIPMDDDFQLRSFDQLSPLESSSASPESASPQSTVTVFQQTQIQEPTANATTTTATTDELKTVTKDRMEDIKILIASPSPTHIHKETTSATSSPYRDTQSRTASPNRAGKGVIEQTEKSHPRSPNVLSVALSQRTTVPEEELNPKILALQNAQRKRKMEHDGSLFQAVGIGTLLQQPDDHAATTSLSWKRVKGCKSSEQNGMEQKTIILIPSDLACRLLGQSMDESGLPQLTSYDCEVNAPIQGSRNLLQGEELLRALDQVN

Row | Structure (SMILES) | EC50
1 | Cc1oc(-c2ccc(Cl)cc2)cc1C(=O)/C(C#N)=C/Nc1cccc(OC(F)(F)F)c1 | > 35 µM (inactive)
2 | CCOC(=O)c1sc(N(Cc2ccccc2)C(=O)COC(=O)c2ccc(O)cc2)nc1C | 12.2 µM
3 | COc1cnc(-c2ccccn2)nc1NC(C)C | 1.85 µM
4 | Cc1cc(-c2nnnn2-c2cc(Cl)cc(Cl)c2)no1 | > 35 µM (inactive)
5 | COC(=O)[C@H](CCSC)NC(=O)c1cccnc1SC | > 35 µM (inactive)
6 | C1CC1Cc1noc(CN2CCN(CC3CC3)CC2)n1 | > 35 µM (inactive)
7 | O=C(Cn1c(SCC(=O)N2CCCc3ccccc32)nc2ccccc21)N1CCCC1 | > 35 µM (inactive)
8 | COc1cc(C2CC(=O)N3CN(Cc4ccccc4)CSC3=C2C#N)ccc1OCc1ccccc1 (configuration not stated) | > 35 µM (inactive)
9 | COc1cccc(/C=N/Nc2ccc([N+](=O)[O-])cn2)c1O | 4.93 µM
10 | CC(C)C(=O)NC(c1cccc([N+](=O)[O-])c1)c1ccc2cccnc2c1O (configuration not stated) | 2.3 µM
11 | Cc1cc(OC(C)C(=O)NNC(=O)Nc2ccc(F)cc2F)cc(C)c1Cl (configuration not stated) | > 35 µM (inactive)
12 | O=Cc1cc(N=Nc2ccccc2Cl)ccc1O | > 35 µM (inactive)
13 | COc1ccc(-c2nnc(-c3cc4c(ccc5ccccc54)oc3=O)o2)cc1 | > 35 µM (inactive)
14 | O=C1CCCN2N=C(SCC(=O)Nc3ccc(Br)cc3)SC2=N1 | 26.7 µM
15 | CCSc1cc(C)nc2c(-c3ccccc3)cnn12 | > 35 µM (inactive)
16 | O=C(NCCCn1ccnc1)c1cc(-c2cccs2)on1 | 2.68 µM
17 | C=CCOc1ccc(/C=C2\SC(N)=NC2=O)cc1OC | > 35 µM (inactive)
18 | Oc1ccc(/C=N/NC(=S)NC2CC3CCC2C3)cc1 (configuration not stated) | > 35 µM (inactive)
19 | CC(=O)Nc1ccc2c(c1)CCCC2=O | > 35 µM (inactive)
20 | Cn1cc(CN2CCC(C(=O)Nc3cccc(-c4cscn4)c3)CC2)cn1 | > 35 µM (inactive)
21 | COC(=O)CCCC1=CC2=CC(=O)C(C)(OC(=O)c3cccs3)C(=O)C2=CN1Cc1ccc2c(c1)OCO2 (configuration not stated) | > 35 µM (inactive)
22 | CCC(=O)NC(=S)Nc1ccc(NC(=O)c2cccc([N+](=O)[O-])c2C)cc1 | > 35 µM (inactive)
23 | N#CCC(=O)N/N=C/c1ccc(SCC(=O)Nc2ccccc2)o1 | > 35 µM (inactive)
24 | Cc1ccccc1OCC(=O)Nc1ccc(N2CCN(C)CC2)c(Cl)c1 | > 35 µM (inactive)
25 | O=C(N/N=C/c1cc([N+](=O)[O-])ccc1O)c1cccc2cc[nH]c12 | 20.8 µM
26 | COc1ccc(C(CC(=O)Nc2ccccc2OC)n2cccc2)cc1 (configuration not stated) | > 35 µM (inactive)

Row | Structure (SMILES) | EC50
27 | COc1ccc(CNC(=O)CN(CC2CCCO2)C(=O)CNS(=O)(=O)c2ccc(C)cc2)cc1 (configuration not stated) | > 35 µM (inactive)
28 | O=C1OCc2cc(NC(=O)C34CC5CC(CC(C5)C3)C4)ccc21 | > 35 µM (inactive)
29 | COc1cnc(-c2ccccn2)nc1N(C)C | 5.92 µM
30 | Cc1cccc2[nH]c(CN(C)C(=O)C3CCC(=O)N(C4CC4)C3)nc12 (configuration not stated) | > 35 µM (inactive)
31 | Cc1ccc(Nc2nc(CSc3nnc(-c4ccncc4)n3C)cs2)cc1 | > 35 µM (inactive)
32 | Cc1onc(-c2c(Cl)cccc2Cl)c1C(=O)N=C(N)N1CCCC1 | > 35 µM (inactive)
33 | CCOC(=O)c1c(S(=O)(=O)N2CCCC2)c(C)n(C)c1C | > 35 µM (inactive)
34 | O=C(CCc1ccccc1)NC(c1cccs1)c1cc(Cl)c2cccnc2c1O (configuration not stated) | 35.2 µM
35 | CCC(C)c1ccc2oc(-c3ccc(NC(=O)Cn4cnc5c(=O)n(C)c(=O)n(C)c54)cc3)nc2c1 (configuration not stated) | 6.07 µM
36 | C=CCc1cccc(/C=N/NC(=O)c2ccc3nc[nH]c3c2)c1O | 34.6 µM
37 | COC(=O)Nc1ccc(=O)n(Cc2c(Cl)cccc2Cl)c1 | > 35 µM (inactive)
38 | Cc1ccc(Nc2c(-c3ccccn3)nc3cccc(C)n23)cc1 | 4.41 µM
39 | O=C(O)c1ccccc1Nc1ccc([N+](=O)[O-])cc1C(=O)O | > 35 µM (inactive)
40 | O=C(Nc1nc2c(F)cc(F)cc2s1)c1ccccn1 | 5.5 µM
41 | Cc1nnc(N/N=C/c2ccccn2)[nH]c1=O | 5.75 µM
42 | Cc1cc(SCC(=O)N/N=C/c2ccccc2C(=O)O)c(C)cc1Br | > 35 µM (inactive)
43 | COc1ccc(N2CCN(S(=O)(=O)c3cc(-c4cc(C)no4)ccc3C(C)C)CC2)cc1 | > 35 µM (inactive)
44 | COc1ccc(C(=O)Nc2ccc(C(=O)NCCc3ccc(OC)c(OC)c3)cc2)cc1 | > 35 µM (inactive)
45 | CC(NC(=O)C12CC3CC(CC(O)(C3)C1)C2)c1ccc(Cl)cc1Cl (configuration not stated) | > 35 µM (inactive)
46 | CCC1CCc2sc(C(=O)O)cc2C1 (configuration not stated) | > 35 µM (inactive)
47 | CCCCNC(=S)Nc1ccc2cn[nH]c2c1 | > 35 µM (inactive)
48 | O=C1CCCC(O)=C1C=Nc1cccc(C(F)(F)F)c1 | > 35 µM (inactive)
49 | Oc1ccc2ccccc2c1N=Nc1ccccn1 | 9 µM
50 | CCC1CCCCN1CCCNC(=O)C1CCN(c2nnc(-n3cccc3)s2)CC1 (configuration not stated) | > 35 µM (inactive)
51 | O=C(NC1CCCC1)c1cc(-c2ccccc2)on1 | 16.3 µM
52 | Cc1nc([N+](=O)[O-])c(Br)n1Cc1ccc(Cl)c(Cl)c1 | > 35 µM (inactive)
